Values quoted from earlier work, collected in patent US11857524B2, “Stable oral suspensions of baclofen” (ANI Pharmaceuticals, Inc., priority 2021, dated 2024).
Read-outs that look alike come from different tables or passages of the source.

For `NCC(CC(=O)O)c1ccc(Cl)cc1` (stereo not drawn) [Baclofen, 4-amino-3-(4-chlorophenyl)-butanoic acid], the Solubility (in chloroform) is given as “insoluble”, the Solubility (in methanol) is given as “very slightly soluble” and the Solubility (in water) is given as “slightly soluble”.
